Results as given in a melting point compilation (Tetko et al.; mined from patent text by program, amines drawn as free bases though some values may be those of a salt).

Row | SMILES | melting point [°C]
1 | COc1ccc(C(=O)c2[nH]c(=O)[nH]c2COC(C)=O)cc1 | 155 to 162
2 | CCC12CCC3C4CCCC=C4CCC3C1C=CC2=O (configuration not stated) | 125
3 | CC(C)N1CC(COc2cccc3c(=O)[nH]ccc23)OC1=O (configuration not stated) | 215 to 216
4 | CC(=O)Nc1c(C)cc(O)c(C)c1C | 189 to 190
5 | CC(=O)N1CCc2cc(CC(C)N)cc(C#N)c21 (configuration not stated) | 94 to 96
6 | COc1cc2nc(N3CCN(C(=O)C4=CCCC4)CC3)nc(N)c2cc1OC | 256 to 258
7 | Cc1cccc(C(=O)Nc2c[nH]nc2C(=O)NCCC#N)n1 | 225 to 227
8 | COC(=O)c1cc2c3c(cc(OCc4ccccc4)c2[nH]1)N(C(=O)OC(C)(C)C)C[C@H]3COC(C)=O | 128 to 130
9 | O=C(O)CCn1c(=O)n(CCN2CCN(c3ccc(F)cc3)CC2)c(=O)c2cscc21 | 202 to 203
10 | CSC1=C(c2ccc(O)cc2)C(=O)c2cc(O)cc(O)c21 | 120 to 123
11 | CCOc1ccc(CC(=O)O)cc1OCCCc1cn(-c2ccc(C(F)(F)F)cn2)nc1C1CCCCC1 | 134 to 135
12 | CCCc1c(OCCCOc2ccc(NC(=O)C(=O)O)cc2OC)ccc(C(C)=O)c1O | 125 to 127
13 | COc1cc(OC)cc(C(=CC#N)c2ccc(OC)c([N+](=O)[O-])c2)c1 | 122 to 124
14 | O=C(NC(=O)c1cccs1)NC1CN2CCC1CC2 (configuration not stated) | 232 to 233
15 | COc1ccc(-c2cc3c(s2)c(=O)c(S(C)=O)cn3C)cc1 (configuration not stated) | 262 to 264
16 | COC(=O)C=Cc1ccc(OC)c(C)c1 | 70 to 73
17 | CC(C)NC(=O)[C@H](C)C[C@H](O)[C@H](CC1CCCCC1)NC(=O)[C@H](Cc1cscn1)NC(=O)OC(C)(C)C | 185 to 187
18 | O=C1CCOc2ccc([N+](=O)[O-])cc21 | 171 to 173
19 | Cc1cc(SC2=C(O)CC(C3CCCC3)(C3CCCC3)OC2=O)c(C(C)(C)C)cc1OS(=O)(=O)c1cn(C)cn1 | 143 to 145
20 | CCCCCCCCCCCCCCCc1cccc(OC)c1C1NC(=O)NC(C)=C1C(=O)OCC (configuration not stated) | 91 to 93
21 | Cc1ccsc1C1CC(=O)CC(=O)C1 | 166 to 168
22 | CCOC(=O)c1c(C(C)C)nc2c(c(C)nn2C)c1-c1ccc(F)cc1 | 68 to 71
23 | C=CCC1(C(C)(C)C(=O)O)C(=O)NC(=O)NC1=O | 202 to 203
24 | CNC(=O)NC(NC(=O)C(Cl)(Cl)Cl)C(Cl)(Cl)Cl (configuration not stated) | 209 to 210
25 | O=C(CSc1ncccn1)C12CC3CC(CC(C3)C1)C2 | 100 to 101
26 | CNC(=O)N(N)c1nnc(C(F)(F)F)s1 | 181 to 182

Row | SMILES | melting point [°C]
27 | CC(C)(C)c1cc(-c2nn(CC(F)(F)F)c3ncccc23)cc(C(C)(C)C)c1O | 104 to 106
28 | CCSc1ccc(-c2cncnc2)c2c1C(=O)CC(C)C2 (configuration not stated) | 168 to 171
29 | CCCn1c(=S)c2[nH]c(C(C)C)nc2n(CCC)c1=O | 133 to 134
30 | C=C1C(O)C(CO)OC1n1cc(F)c(N)nc1=O (configuration not stated) | 185 to 187
31 | CN(C)c1ccc(C2(c3ccc(N(C)C)cc3N(C)C)OC(=O)c3c(Cl)c(Cl)c(Cl)c(Cl)c32)c(N(C)C)c1 | 195 to 197
32 | CN(C)c1cccc2c1OC1(CC1)C2=O | 68.3
33 | Cn1c(=O)cc(CCCl)c2cc(Cl)ccc21 | 120 to 122
34 | CCCCCCC(O)CCCCCCCCCCC(N)=O (configuration not stated) | 98 to 99
35 | CC(C)(C)OC(=O)OCc1ccc(COC(=O)OC(C)(C)C)cc1 | 71 to 74
36 | COC(=O)c1cc(OC(C)=O)c2cc(Br)ccc2c1C | 78
37 | COc1ccc(CN2CCC(c3cn(CCc4ccsc4)c4cc(F)ccc34)CC2)cc1C(=O)O | 228 to 229
38 | CCOCCC(=O)C1CCC2C3CCC4CC(O)CCC4(C)C3C(=O)CC12C (configuration not stated) | 126 to 130
39 | CCCc1c(SCCCOc2ccc(C(C)=O)c(OCCCC(=O)OCC)c2CCC)ccc(C(C)=O)c1O | 65 to 66
40 | CC(C)C(C(=O)O)c1ccc(N=[N+]=[N-])cc1 (configuration not stated) | 95 to 97
41 | C=CCOc1ccc(NC(=O)CC(C#N)=C(C)O)cc1 | 162 to 164
42 | Cn1cc(Cl)cnc1=O | 210
43 | CNN=C1CCC(C)n2c1ncc(C(=O)O)c2=O (configuration not stated) | 219 to 220
44 | COc1ccc(CCN(C)C)c2[nH]c(=S)[nH]c12 | 213 to 216
45 | O=C1c2cscc2C(=O)c2cscc21 | 340
46 | CCN(CC)CCC1CCc2cc(O)ccc2C1 (single isomer, unassigned; (+)) | 102 to 104
47 | CC(C)OC(=O)C(=O)Nc1cc(Cl)ccc1O | > 300
48 | CCOc1cc2c(=O)[nH]cnc2cc1OC(C)C | 204 to 205
49 | CC(=O)c1c(NC(=O)C(C)(C)C)cccc1C(F)(F)F | 142
50 | CCOC(=O)c1ncc2[nH]c3ccc(SC)cc3c2n1 | 265 to 266
51 | CCCc1nsc(Oc2cccc(NC(=O)OC(C)C)c2)n1 | 64

Next, values leading:

Row | melting point [°C] | SMILES
52 | 82 to 100 | O=C1N(CC2CCCO2)c2ccccc2C12COc1cc3c(cc12)C(=NO)CO3 (configuration not stated)
53 | 182 | O=C(O)c1nn(-c2ccc(Cl)cc2Cl)c(-c2ccc(Cl)cc2)c1COCCO
54 | 134 to 135 | CCN(CC)C1=NC(NC(=O)CCCCc2ccccc2)C(=O)N(C)c2ccccc21 (configuration not stated)
55 | 161 | Cc1c(C(=O)NCc2ccccc2)nc2n1CCc1ccccc1C2OC1CCN(C)CC1 (configuration not stated)
56 | 118 to 120 | O=C(Cl)c1cc(Oc2ccc(C(F)(F)F)cc2Cl)ccc1[N+](=O)[O-]
57 | 30 to 35 | COc1cc(C(=O)N(C)CC(CCN2CCC(C(=O)c3nc4ccccc4n3Cc3ccccn3)CC2)c2ccc(F)cc2)cc(OC)c1OC (configuration not stated)
58 | 75 to 76 | CCC(O)(c1ccc(OCCCc2ccccc2)cc1)c1ccccc1OC (configuration not stated)
59 | 124 to 126 | Cc1cc2c(nc(C)n2CCc2ccccc2)c(N(Cc2ccccc2)Cc2ccccc2)n1
60 | 136 to 137 | O=c1cc(-c2cccc(F)c2)oc2ccc(OCCCCCCN3CCC(O)CC3)cc12
61 | 225 to 226 | CN(c1ccc(Cl)c2cc(-c3ncc(CO)s3)[nH]c12)S(=O)(=O)c1cccs1
62 | 125 to 131 | COc1cc(OCc2ccccn2)ccc1/C=C/c1cc(/C=C/c2cc([N+](=O)[O-])c3cc[nH]c3c2)[nH]n1
63 | 216 to 218 | CSc1nn2c(N)cc(CN(C)C)nc2c1S(=O)(=O)c1ccccc1
64 | 121 to 123 | CCOC(=O)c1cnc2c(c(C)nn2-c2ccccn2)c1Cl
65 | 152 to 154 | CNc1nnnn1-c1ccccc1C(=O)O
66 | 119 to 120 | CNc1nc(N2CCN(Cc3ccccc3)CC2)ncc1CCO
67 | 120 to 125 | O=C(N[C@@H](Cc1ccccc1)C(=O)On1nnc2ccccc21)OCc1ccccc1
68 | 234 to 235 | Cc1ccc(-c2nc(=S)n(Cc3ccccc3)[nH]2)cc1
69 | 89 to 91 | Nc1sc2c(c1C(=O)c1ccccc1)CCN(CCc1ccc([N+](=O)[O-])cc1)C2
70 | 110 to 112 | CC1(C)COC(c2ccccc2C2Oc3cccc(F)c3C(=O)C2=Cc2ccccc2)=N1 (configuration not stated)
71 | 105 to 107 | CCc1c(C(=O)Cl)cnn1-c1ccc(Cl)cc1
72 | > 300 | O=C(O)C1C=Nc2c(ccc3ncccc23)N1O (configuration not stated)
73 | 160 to 161 | O=c1ccn(-c2cccc(S(=O)(=O)c3nc4ccccc4[nH]3)c2)nc1-c1ccnn1-c1ccccc1
74 | 88 to 89 | COc1ccc(COc2cccc(C(C)O)c2OCc2ccc(OC)cc2)cc1 (configuration not stated)
75 | 114 | OC(c1ccccc1)(c1ccc(Oc2ccccc2)cc1)c1ccccn1 (configuration not stated)
76 | 143 to 145 | CN(C1CCCOc2ccccc21)S(C)(=O)=O (configuration not stated)
77 | 194 to 195 | NC(=O)c1ncn(CCCc2ccc(OCc3coc(/C=C/c4ccccc4)n3)cc2)c1C(N)=O

Row | melting point [°C] | SMILES
78 | 74 to 75 | Cc1ccc(CCOc2ccc(N)cc2)nc1
79 | 216 to 218 | Cn1cnc(COc2nn3c(-c4ccccc4F)nnc3cc2-c2ccsc2)n1
80 | 84 to 85 | Cc1cnc(C)c(Oc2ccc(OCn3cnc(Cl)c3Cl)cc2)n1
81 | 234 | CC1=C(C(=O)OCc2ccccc2)C(c2ccccc2Cl)c2c[nH]nc2N1 (configuration not stated)
82 | 190 to 191 | BrCc1nc2cc3ccccc3cc2nc1CBr
83 | 103 to 107 | Cc1cc(OCCN2CCOCC2)nn1-c1ccc2ccc(O)cc2c1
84 | 69 to 70 | CCOC(=O)CCc1cn(Cc2ccc(OCc3cn4c(Cl)cccc4n3)cc2)nc1OCC
85 | 138 to 140 | O=C(CN1C(=O)CC1S(=O)Cc1ccccc1)NCCCCCCc1ccccc1 (configuration not stated)
86 | 64 to 66 | CCCCNC(=O)Oc1ccc(Oc2ccc(C)cc2)cc1
87 | 179 to 186 | O=C(Nc1ccc(Cl)nc1Cl)c1ccccc1O
88 | 190 to 193 | O=C(O)c1c2c(nc3ccccc13)-c1cc3sc4ccccc4c3cc1CC2
89 | 200 | O=C1C2=C(SCCO2)C(=O)N1c1ccc2cccnc2n1
90 | 202 to 204 | CN(C)C=Cc1[nH]c(=O)ccc1C(=O)c1ccccc1
91 | 223 to 225 | NCc1cccc2ccc(C(=O)O)cc12
92 | 89 to 91 | CN(C(=O)COc1ccccc1)c1ccc(OC23CC4CC(CC(C4)C2)C3)cc1
93 | 158 to 160 | Clc1ccc(C2CC(n3ccnc3)c3ccccc3N2)cc1 (configuration not stated)
94 | 30 to 34 | O=[N+]([O-])c1cc(OCc2ccccc2)ccc1CCBr
95 | 122 to 123 | COc1ccc(Cc2cc3cccc(-c4cccc(C(=O)O)c4)c3o2)cc1OC
96 | 201 to 203 | CS(=O)(=O)N1CC2(CCN(C(=O)Nc3cnc(-c4ccccc4)cn3)CC2)c2ccccc21
97 | 202 to 204 | N#Cc1cnc2sc(-c3ccccc3)cc2c1Cl
98 | 214 to 215 | Fc1ccc(-n2nc(-c3cccc(C(F)(F)F)c3)c3ncccc3c2=S)cc1
99 | 147 | OCc1cccn1CCN1CCC(=C2c3ccccc3CCn3ccnc32)CC1
100 | 51 to 53 | Fc1ccc(C2CCC3(CC2)OCCO3)cc1
101 | 135 | CC(CN(C)C)N1c2ccccc2Sc2ccc(C(=O)NCc3cccs3)cc21 (racemic)
102 | 195 | CCCC1=C(C(=O)OCC)C(c2ccccc2OC2CCCC2)c2c[nH]nc2N1 (configuration not stated)
